Values quoted from earlier work as cited in patent US9265822B2 (priority 2009, dated 2016).

System: 2009 H1N1 swine flu virus

SMILES	resistance or susceptibility of the virus
NC12CC3CC(CC(C3)C1)C2 [amantadine]	resistant
CCOC(=O)C1=C[C@@H](OC(CC)CC)[C@H](NC(C)=O)[C@@H](N)C1 [oseltamivir]	susceptible
CC(N)C12CC3CC(CC(C3)C1)C2 (stereo not shown) [rimantadine]	resistant
CC(=O)N[C@H]1[C@H]([C@H](O)[C@H](O)CO)OC(C(=O)O)=C[C@@H]1N=C(N)N [zanamivir]	susceptible
